Experimental data reported in patent US20230011869A1 (Hoffmann-La Roche Inc., priority 2018, published 2023).
Counter-ions that a name gives are not always drawn. Like-named read-outs stand apart in the source and are kept apart here.

System: Acinetobacter baumannii ATCC17978
Test: Antimicrobial susceptibility testing: 90% growth inhibitory concentration (IC90) determination, Iso-Sensitest broth
Assay type: cell-based
Procedure, shortened: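 A. baumannii ATCC17978 grown in Iso-Sensitest broth across 10 compound concentrations at 35±2 °C.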

[1] = Acinetobacter baumannii, ATCC17978, 16 h, read-out: ATCC17978 IC90, 90% growth inhibitory concentration, Acinetobacter baumannii ATCC17978, Iso-Sensitest broth, OD 600 nm over 16 h
[2] = 90% growth inhibitory concentration, Acinetobacter baumannii ATCC17978, Iso-Sensitest broth, OD 600 nm over 16 h, read-out: ATCC17978 IC90

| IC90 [2] [nM] | Structure (SMILES) | IC90 [1] [nM] |
| --- | --- | --- |
| – | Cc1cc(Nc2nccn3c(-c4ccc(OC(F)F)cc4)cnc23)ccc1C(=O)N1CCC(C(=O)N[C@@H]2C(O)O[C@H](CO)[C@@H](O)[C@@H]2O)CC1 (mixture of isomers) [Example 351, 1-[4-[[3-[4-(difluoromethoxy)phenyl]imi-dazo[1,2-a]pyrazin-8-yl]amino]-2-methylbenzoyl]-N-[rac-(3R,4S,5R,6S)-2,4,5-trihydroxy-6-(hydroxymethyl)oxan-3-yl]piperidine-4-carboxamide] | 720 |
| 210 | Cc1cc(Nc2nccn3c(-c4ccc(OC(F)F)cc4)cnc23)ccc1C(=O)N1CCN(C(=O)C2CCCN2)CC1 (centres unmarked) [Example 177, [4-[[3-[4-(difluoromethoxy)phenyl]imidazo[1,2-a]pyrazin-8-yl]amino]-2-methyl-phenyl]-[4-(pyrrolidine-2-carbonyl)piperazin-1-yl]methanone hydrochloride] | – |
| 280 | Cc1cc(Nc2nccn3c(-c4ccc(OC(F)F)cc4)cnc23)ccc1C(=O)N1CCN(C(=O)N(C)C)CC1 [Example 135, 4-[4-[[3-[4-(difluoromethoxy)phenyl]imidazo[1,2-a]pyrazin-8-yl]amino]-2-methyl-benzoyl]-N,N-dimethyl-piperazine-1-carboxamide] | – |
| – | CN[C@H](C)C(=O)N1CCN(C(=O)c2ccc(Nc3nccn4c(-c5ccc(OC(F)F)cc5)cnc34)cc2C)CC1 [Example 334, (2R)-1-[4-[4-[[3-[4-(difluoromethoxy)phenyl]imi-dazo[1,2-a]pyrazin-8-yl]amino]-2-methylbenzoyl]piperazin-1-yl]-2-(methylamino)propan-1-one; hydrochloride] | 430 |
| – | Cc1cc(Nc2nccn3c(-c4ccc(OC(F)F)cc4)cnc23)ccc1C(=O)N1CCN(C(=O)N[C@H](C)CN)CC1 [Example 482, N-[(2R)-1-aminopropan-2-yl]-4-[4-[[3-[4-(difluoromethoxy)phenyl]imi-dazo[1,2-a]pyrazin-8-yl]amino]-2-methylbenzoyl]piperazine-1-carboxamide; hydrochlroide] | 170 |
| – | Cc1cc(Nc2nccn3c(-c4ccc(OC(F)F)cc4)cnc23)ccc1C(=O)N1CCN(C(=O)N2CCNCC2CO)CC1 (centres unmarked) [Example 505, [4-[[3-[4-(difluoromethoxy)phenyl]imi-dazo[1,2-a]pyrazin-8-yl]amino]-2-methylphenyl]-[4-[2-(hydroxymethyl)piperazine-1-carbonyl]piperazin-1-yl]methanone] | 500 |
| 400 | Cc1cc(Nc2nccn3c(-c4ccc(OC(C)C#N)c(F)c4F)cnc23)ccc1C(=O)N1CCC(CN)CC1 (centres unmarked) [Example 119, 2-[4-[8-[4-[4-(aminomethyl)piperidine-1-carbonyl]-3-methyl-anilino]imidazo[1,2-a]pyrazin-3-yl]-2,3-difluoro-phenoxy]propanenitrile;2,2,2-trifluoroacetic acid] | – |
| 92 | Cc1cc(Nc2nccn3c(-c4ccc(OCC#N)c(F)c4Cl)cnc23)ccc1C(=O)N1CCN(C(=O)N2CCO[C@H](CN)C2)CC1 [Example 157, 2-[4-[8-[4-[4-[(2R)-2-(aminomethyl)morpholine-4-carbonyl]piperazine-1-carbonyl]-3-methyl-anilino]imidazo[1,2-a]pyrazin-3-yl]-3-chloro-2-fluoro-phenoxy]acetonitrile formate] | – |
| – | Cc1cc(Nc2nccn3c(-c4ccc(OC(F)F)cc4)cnc23)ccc1C(=O)N1CCN(C(=O)[C@H](N)CCC(=O)O)CC1 [Example 275, (4R)-4-amino-5-[4-[4-[[3-[4-(difluoromethoxy)phenyl]imi-dazo[1,2-a]pyrazin-8-yl]amino]-2-methylbenzoyl]piperazin-1-yl]-5-oxopentanoic acid; hydrochloride] | 3100 |
| 2100 | COc1ccc(-c2cnc3c(Nc4ccc(C(=O)N5CCNC(CN(C)C)C5)c(C)c4)nccn23)cc1F (centres unmarked) [Example 254, [3-[(dimethylamino)methyl]pi-perazin-1-yl]-[4-[[3-(3-fluoro-4-methoxyphenyl)imidazo[1,2-a]pyrazin-8-yl]amino]-2-methylphenyl]methanone; hy-drochloride] | – |
| 1300 | Cc1cc(Nc2nccn3c(-c4ccc(O)c(F)c4)cnc23)ccc1C(=O)N1CCC(CN)CC1 [Example 428, [4-(aminomethyl)piperidin-1-yl]-[4-[[3-(3-fluoro-4-hydroxyphenyl)imidazo[1,2-a]pyrazin-8-yl]amino]-2-methylphenyl]methanone] | – |
| – | Cc1cc(Nc2nccn3c(-c4ccc(OC(F)F)cc4)cnc23)ccc1C(=O)N1CCN(C(=O)[C@@H](N)CO)CC1 [Example 526, (2S)-2-amino-1-[4-[4-[[3-[4-(difluoromethoxy)phenyl]imi-dazo[1,2-a]pyrazin-8-yl]amino]-2-methylbenzoyl]piperazin-1-yl]-3-hydroxypropan-1-one; hydrochloride] | 560 |
| – | Cc1cc(Nc2nccn3c(-c4ccc(OC(F)F)cc4)cnc23)ccc1C(=O)N1CCN(C(=O)[C@@H](N)CCC(=O)O)CC1 [Example 272, (4S)-4-amino-5-[4-[4-[[3-[4-(difluoromethoxy)phenyl]imi-dazo[1,2-a]pyrazin-8-yl]amino]-2-methylbenzoyl]piperazin-1-yl]-5-oxopentanoic acid; hydrochloride] | 2200 |
| – | Cc1cc(Nc2nccn3c(-c4ccc(OC(F)F)cc4)cnc23)ccc1C(=O)N1CCN(C(=O)N2CCN(C)CC2)CC1 [Example 128, [4-[[3-[4-(difluoromethoxy)phenyl]imidazo[1,2-a]pyrazin-8-yl]amino]-2-methyl-phenyl]-[4-(4-methylpiperazine-1-carbonyl)piperazin-1-yl]methanone formate] | 190 |
| – | CN[C@@H](C)C(=O)N1CCN(C(=O)c2ccc(Nc3nccn4c(-c5ccc(OC(F)F)cc5)cnc34)cc2C)CC1 [Example 311, (2S)-1-[4-[4-[[3-[4-(difluoromethoxy)phenyl]imi-dazo[1,2-a]pyrazin-8-yl]amino]-2-methylbenzoyl]piperazin-1-yl]-2-(methylamino)propan-1-one; hydrochloride] | 190 |
| 150 | Cc1cc(Nc2nccn3c(-c4ccc(OC(F)F)cc4)cnc23)ccc1C(=O)N1CCN(C(=O)N[C@@H]2CCNC2)CC1 [Example 142, 4-[4-[[3-[4-(difluoromethoxy)phenyl]imidazo[1,2-a]pyrazin-8-yl]amino]-2-methyl-benzoyl]-N-[(3R)-pyrrolidin-3-yl]piperazine-1-carboxamide hydrochloride] | – |
| – | COc1ccc(-c2cnc3c(Nc4ccc(C(=O)N5CCC(C(=O)N6CC[C@@H](N)[C@@H](O)C6)CC5)c(C)c4)nccn23)cc1F [Example 392, [4-[(3S,4R)-4-amino-3-hydroxypiperidine-1-carbonyl]piperidin-1-yl]-[4-[[3-(3-fluoro-4-methoxyphenyl)imidazo[1,2-a]pyrazin-8-yl]amino]-2-methylphenyl]methanone; 2,2,2-trifluoroacetic acid] | 340 |
| – | COc1ccc(-c2cnc3c(Nc4ccc(C(=O)N5CCN(C(=O)[C@@H]6CCNC6)CC5)c(C)c4)nccn23)cc1F [Example 483, [4-[[3-(3-fluoro-4-methoxyphenyl)imidazo[1,2-a]pyrazin-8-yl]amino]-2-methylphenyl]-[4-[(3R)-pyrrolidine-3-carbonyl]piperazin-1-yl]methanone; hydrochloride] | 180 |
| – | Cc1cc(Nc2nccn3c(-c4ccc(OC(F)F)cc4)cnc23)ccc1C(=O)N1CCN(C(=O)C[C@@H]2CCCN2)CC1 [Example 336, 1-[4-[4-[[3-[4-(difluoromethoxy)phenyl]imi-dazo[1,2-a]pyrazin-8-yl]amino]-2-methylbenzoyl]piperazin-1-yl]-2-[(2S)-pyrrolidin-2-yl]ethanone] | 460 |
| 280 | CNCC(=O)N1CCN(C(=O)c2ccc(Nc3nccn4c(-c5ccc(OC)c(Cl)c5)cnc34)cc2C)CC1 [Example 322, 1-[4-[4-[[3-(3-chloro-4-methoxyphenyl)imidazo[1,2-a]pyrazin-8-yl]amino]-2-methylbenzoyl]piperazin-1-yl]-2-(methylamino)ethanone; hy-drochloride] | – |
| 120 | Cc1cc(Nc2nccn3c(-c4ccc(OC(F)F)cc4)cnc23)ccc1C(=O)N1CCN(C2=NCCN2)CC1 [Example 67] | – |
| 170 | COc1ccc(-c2cnc3c(Nc4ccc(C(=O)N5CCC(C(=O)N[C@@H]6CCNC6)CC5)c(C)c4)nccn23)c(F)c1F [Example 63, (R)-1-(4-((3-(2,3-difluoro-4-methoxyphenyl)imidazo[1,2-a]pyrazin-8-yl)amino)-2-methylbenzoyl)-N-(pyrrolidin-3-yl)piperidine-4-carboxamide hydrochloride] | – |
| – | Cc1cc(Nc2nccn3c(-c4ccc(O[C@H](C)C#N)c(F)c4F)cnc23)ccc1C(=O)N1CCN(C(=O)C2(O)CCNCC2)CC1 [Example 560, (2R)-2-[2,3-difluoro-4-[8-[4-[4-(4-hydroxypiperidine-4-carbonyl)piperazine-1-carbonyl]-3-methyl-anilino]imidazo[1,2-a]pyrazin-3-yl]phenoxy]propanenitrile formate] | 746 |
| – | Cc1cc(Nc2nccn3c(-c4ccc(OCC#N)c(F)c4F)cnc23)ccc1C(=O)N1CCC(C(=O)OC[C@H]2CNCCN2)CC1 [Example 499, formic acid; [(2R)-piperazin-2-yl]methyl 1-[4-[[3-[4-(cyanomethoxy)-2,3-difluorophenyl]imidazo[1,2-a]pyrazin-8-yl]amino]-2-methylbenzoyl]piperidine-4-carboxylate] | 360 |
| 120 | COc1ccc(-c2cnc3c(Nc4ccc(C(=O)N5CCC(CN(C)C)CC5)c(C)c4)nccn23)c(F)c1F [Example 29, (4-((3-(2,3-difluoro-4-methoxyphenyl)imidazo[1,2-a]pyrazin-8-yl)amino)-2-methylphenyl)(4-((dimethylamino)methyl)piperidin-1-yl)methanone] | – |

| Structure (SMILES) | IC90 [2] [nM] | IC90 [1] [nM] |
| --- | --- | --- |
| COc1ccc(-c2cnc3c(Nc4ccc(C(=O)N5CCC(C(=O)N6CCNC(C(=O)O)C6)CC5)c(C)c4)nccn23)cc1F (centres unmarked) [Example 48, 4-[1-[4-[[3-(3-fluoro-4-methoxyphenyl)imidazo[1,2-a]pyrazin-8-yl]amino]-2-methylbenzoyl]piperidine-4-carbonyl]piperazine-2-carboxylic acid;hydrochloride] | 930 | – |
